Here are results for 25 molecules from US8426604B2 (Janssen Pharmaceutica NV, priority 2010, dated 2013).

SMILES strings stand for the structures.

This assay has as its target T1, ERR1 (also known as ERR-α or ERR-1) (Homo sapiens, UniProt P11474).
T1 sequence (P11474 193-421 limits assumed): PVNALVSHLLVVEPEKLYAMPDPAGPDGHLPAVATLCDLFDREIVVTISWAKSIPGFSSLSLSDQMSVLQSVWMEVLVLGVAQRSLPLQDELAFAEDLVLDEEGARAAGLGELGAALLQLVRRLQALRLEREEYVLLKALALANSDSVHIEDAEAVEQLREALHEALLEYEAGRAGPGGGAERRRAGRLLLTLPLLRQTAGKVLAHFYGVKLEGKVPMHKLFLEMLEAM
The assay can be described thus: TR-FRET assay (disruption of co-activator peptide binding). It counts as biochemical. To be noted: 6His-tagged ERR1LBD, GST-hSRC2 co-activator peptide; average of 3 independent experiments. As to the method: Time-Resolved Fluorescence Resonance Energy Transfer (TR-FRET) experiments were performed to examine the functional response of ERR1 (also known as ERR-α or ERR-1) ligands. The TR-FRET assay described herein relied on the conformation of ERR1 for binding to a co-activator peptide: when a test compound binds to ERR1 and alters its conformation, it can disrupt the binding of the co-activator peptide. The components of this homogeneous secondary assay included: the ^6His-tagged-ERR1LBD, a GST-labeled-hSRC2 co-activator polypeptide and a fluorescent donor/acceptor pair from CIS bio international htrf/bioassays (Bedford, Mass.) using both an α-GST Europium Cryptate (Eu) label and an α^6His-XL665 (allophycocyanin) fluorophore.
For TR-FRET measurements, the reaction was buffered in 25 mM Tris pH 8, 2.5 mM Hepes, 20 mM KCl, 1 mM DTT, and 0.05 mg/mL BSA (-lipids). The final concentrations of reagents were 6 nM of ERR1LBD, 6 nM GST-SRC-2 peptide, 30 nM Eu cryptate, and 7.5 nM XL665. Reactions were allowed to reach equilibrium at 25° C. for 4-18 hours before collecting data on the Analyst from LJL Biosystems (Molecular Devices Sunnyvale, Calif.). As a time-resolved method, the samples were excited at […] and emission was collected for 1 ms at both 615 and 665 nm with delays of 400 and 75 μs, respectively. Dose response curves were fitted using a hyperbolic equation and the data reported is the average of 3 independent experiments.
A general note: TR-FRET usually uses a lanthanide donor and a delayed reading to cut background.
One may read the EC50 as the concentration at which the effect is half-maximal. The low end stands for a more potent agent, the high end for a less potent agent. With `COC[C@@H]1C[C@H](N(C)C2=NC(=O)/C(=C/c3ccc4c(cnn4Cc4ccc(Cl)cc4C(F)(F)F)c3)S2)CN1` (stereo in doubt) [Compound 41, 5-[1-(4-Chloro-2-trifluoromethyl-benzyl)-1H-indazol-5-ylmethylene]-2-[(5-methoxymethyl-pyrrolidin-3-yl)-methyl-amino]-thiazol-4-one], the EC50 came out at 24 nM.
`CN(C1=NC(=O)/C(=C/c2ccc3c(cnn3Cc3ccc(Cl)cc3C(F)(F)F)c2)S1)[C@@H]1CN[C@H](CO)C1` (stereo in doubt) [Compound 42, 5-[1-(4-Chloro-2-trifluoromethyl-benzyl)-1H-indazol-5-ylmethylene]-2-[(5-hydroxymethyl-pyrrolidin-3-yl)-methyl-amino]-thiazol-4-one]: the EC50 was 24 nM.
`CN(C)C1=NC(=O)/C(=C/c2ccc3c(cnn3Cc3ccc(C(F)(F)F)cc3C(F)(F)F)c2)S1` [Compound 1, 5-[1-(2,4-Bis-trifluoromethyl-benzyl)-1H-indazol-5-ylmethylene]-2-dimethylamino-thiazol-4-one] returned an EC50 of 12 nM.
`CN(C)CCN(C)C1=NC(=O)/C(=C/c2ccc3c(cnn3Cc3ccc(C(F)(F)F)cc3C(F)(F)F)c2)S1` [Compound 2, 5-[1-(2,4-Bis-trifluoromethyl-benzyl)-1H-indazol-5-ylmethylene]-2-[(2-dimethylamino-ethyl)-methyl-amino]-thiazol-4-one] displayed an EC50 of 7 nM.
With `N#Cc1ccc(Cn2ncc3cc(/C=C4\SC(N(CCO)CCO)=NC4=O)ccc32)c(C(F)(F)F)c1` [Compound 3, 4-(5-{2-[Bis-(2-hydroxy-ethyl)-amino]-4-oxo-4H-thiazol-5-ylidenemethyl}-indazol-1-ylmethyl)-3-trifluoromethyl-benzonitrile] the figure was 120 nM; with `O=C1N=C(N(CCO)CCO)S/C1=C\c1ccc2c(cnn2Cc2ccc(Cl)cc2C(F)(F)F)c1` [Compound 4, 2-[Bis-(2-hydroxy-ethyl)-amino]-5-[1-(4-chloro-2-trifluoromethyl-benzyl)-1H-indazol-5-ylmethylene]-thiazol-4-one], 10 nM.
As to `CN(C)CCN(C)C1=NC(=O)/C(=C/c2ccc3c(cnn3Cc3ccc(Cl)cc3C(F)(F)F)c2)S1` [Compound 5, 5-[1-(4-Chloro-2-trifluoromethyl-benzyl)-1H-indazol-5-ylmethylene]-2-[(2-dimethylamino-ethyl)-methyl-amino]-thiazol-4-one], the EC50 is 5.1 nM.
With `CN(CC(O)CO)C1=NC(=O)/C(=C/c2ccc3c(cnn3Cc3ccc(Cl)cc3C(F)(F)F)c2)S1` (stereo not shown) [Compound 6, 5-[1-(4-Chloro-2-trifluoromethyl-benzyl)-1H-indazol-5-ylmethylene]-2-[(2,3-dihydroxy-propyl)-methyl-amino]-thiazol-4-one] the figure was 3.6 nM; with `CN(C)CCN(C)C1=NC(=O)/C(=C/c2ccc3c(cnn3Cc3ccc(S(C)(=O)=O)cc3Cl)c2)S1` [Compound 7, 5-[1-(2-Chloro-4-methanesulfonyl-benzyl)-1H-indazol-5-ylmethylene]-2-[(2-dimethylamino-ethyl)-methyl-amino]-thiazol-4-one], 830 nM; with `CN(CC(O)CO)C1=NC(=O)/C(=C/c2ccc3c(cnn3Cc3ccc(S(C)(=O)=O)cc3C(F)(F)F)c2)S1` (stereo not shown) [Compound 8, 2-[(2,3-Dihydroxy-propyl)-methyl-amino]-5-[1-(4-methanesulfonyl-2-trifluoromethyl-benzyl)-1H-indazol-5-ylmethylene]-thiazol-4-one], 520 nM.
For `COCCN(CCOC)C1=NC(=O)/C(=C/c2ccc3c(cnn3Cc3ccc(OC)cc3C(F)(F)F)c2)S1` [Compound 9, 2-[Bis-(2-methoxy-ethyl)-amino]-5-[1-(4-methoxy-2-trifluoromethyl-benzyl)-1H-indazol-5-ylmethylene]-thiazol-4-one], the EC50 came out at 4.1 nM.
For `COCCN(CCOC)C1=NC(=O)/C(=C/c2ccc3c(cnn3Cc3ncc(C(F)(F)F)cc3Cl)c2)S1` [Compound 10, 2-[Bis-(2-methoxy-ethyl)-amino]-5-[1-(3-chloro-5-trifluoromethyl-pyridin-2-ylmethyl)-1H-indazol-5-ylmethylene]-thiazol-4-one], the EC50 was determined as 800 nM. This EC50 lies about 200-fold higher than the previous one.
With `CN(CC(O)CO)C1=NC(=O)/C(=C/c2ccc3c(cnn3Cc3ncc(C(F)(F)F)cc3Cl)c2)S1` (stereo not shown) [Compound 11, 5-[1-(3-Chloro-5-trifluoromethyl-pyridin-2-ylmethyl)-1H-indazol-5-ylmethylene]-2-[(2,3-dihydroxy-propyl)-methyl-amino]-thiazol-4-one] the figure was 1600 nM.
Turning to `O=C1N=C(N(CCO)CCO)S/C1=C\c1ccc2c(cnn2Cc2ncc(C(F)(F)F)cc2Cl)c1` [Compound 12, 2-[Bis-(2-hydroxy-ethyl)-amino]-5-[1-(3-chloro-5-trifluoromethyl-pyridin-2-ylmethyl)-1H-indazol-5-ylmethylene]-thiazol-4-one], a half-maximal response (EC50) required 3900 nM. This EC50 is about 2.4-fold higher than that of the molecule before.
The molecule `COc1ccc(Cn2ncc3cc(/C=C4\SC(N(C)CC(O)CO)=NC4=O)ccc32)c(C(F)(F)F)c1` (stereo not shown) [Compound 13, 2-[(2,3-Dihydroxy-propyl)-methyl-amino]-5-[1-(4-methoxy-2-trifluoromethyl-benzyl)-1H-indazol-5-ylmethylene]-thiazol-4-one] gave an EC50 of 3.6 nM.
The molecule `COCCN(CCOC)C1=NC(=O)/C(=C/c2ccc3c(cnn3Cc3ccc(Cl)cc3C(F)(F)F)c2)S1` [Compound 14, 2-[Bis-(2-methoxy-ethyl)-amino]-5-[1-(4-chloro-2-trifluoromethyl-benzyl)-1H-indazol-5-ylmethylene]-thiazol-4-one] showed an EC50 of 3.3 nM.
In the case of `CN(C1=NC(=O)/C(=C/c2ccc3c(cnn3Cc3ccc(C(F)(F)F)cc3C(F)(F)F)c2)S1)C1CCNCC1` [Compound 17, 5-[1-(2,4-Bis-trifluoromethyl-benzyl)-1H-indazol-5-ylmethylene]-2-(methyl-piperidin-4-yl-amino)-thiazol-4-one] it was 37 nM; in that of `CN(CCN1CCCC1)C1=NC(=O)/C(=C/c2ccc3c(cnn3Cc3ccc(Cl)cc3C(F)(F)F)c2)S1` [Compound 18, 5-[1-(4-Chloro-2-trifluoromethyl-benzyl)-1H-indazol-5-ylmethylene]-2-[methyl-(2-pyrrolidin-1-yl-ethyl)amino]-thiazol-4-one], 13 nM.
With `CN1CCC(N(C)C2=NC(=O)/C(=C/c3ccc4c(cnn4Cc4ccc(Cl)cc4C(F)(F)F)c3)S2)CC1` [Compound 19, 5-[1-(4-Chloro-2-trifluoromethyl-benzyl)-1H-indazol-5-ylmethylene]-2-[methyl-(1-methyl-piperidin-4-yl)-amino]-thiazol-4-one], the response was half-maximal at 8.1 nM (EC50).
`CON(C)C1=NC(=O)/C(=C/c2ccc3c(cnn3Cc3ccc(Cl)cc3C(F)(F)F)c2)S1` [Compound 21, 5-[1-(4-Chloro-2-trifluoromethyl-benzyl)-1H-indazol-5-ylmethylene]-2-(methoxy-methyl-amino)-thiazol-4-one] yielded an EC50 of 24 nM.
For the molecule `CN(CC(=O)O)C1=NC(=O)/C(=C/c2ccc3c(cnn3Cc3ccc(Cl)cc3C(F)(F)F)c2)S1` [Compound 22, ({5-[1-(4-Chloro-2-trifluoromethyl-benzyl)-1H-indazol-5-ylmethylene]-4-oxo-4,5-dihydro-thiazol-2-yl}-methyl-amino)-acetic acid], a half-maximal response (EC50) required 13 nM.
`CN1CCN(CCN(C)C2=NC(=O)/C(=C/c3ccc4c(cnn4Cc4ccc(Cl)cc4C(F)(F)F)c3)S2)CC1` [Compound 23, 5-[1-(4-Chloro-2-trifluoromethyl-benzyl)-1H-indazol-5-ylmethylene]-2-{methyl-[2-(4-methyl-piperazin-1-yl)-ethyl]-amino}-thiazol-4-one] came in with an EC50 of 9 nM. This EC50 and that of the molecule before are within 1.5-fold of each other.
As to `COCCN1CCC(N(C)C2=NC(=O)/C(=C/c3ccc4c(cnn4Cc4ccc(Cl)cc4C(F)(F)F)c3)S2)CC1` [Compound 24, 5-[1-(4-Chloro-2-trifluoromethyl-benzyl)-1H-indazol-5-ylmethylene]-2-{[1-(2-methoxy-ethyl)-piperidin-4-yl]-methyl-amino}-thiazol-4-one], the EC50 is 9 nM. This counts as single-digit nanomolar.
Take `CN(C1=NC(=O)/C(=C/c2ccc3c(cnn3Cc3ccc(Cl)cc3C(F)(F)F)c2)S1)C1CCN(CCF)CC1` [Compound 25, 5-[1-(4-Chloro-2-trifluoromethyl-benzyl)-1H-indazol-5-ylmethylene]-2-{[1-(2-fluoro-ethyl)-piperidin-4-yl]-methyl-amino}-thiazol-4-one]: the EC50 is 11 nM.
For the molecule `CN(CCN1CCOCC1)C1=NC(=O)/C(=C/c2ccc3c(cnn3Cc3ccc(Cl)cc3C(F)(F)F)c2)S1` [Compound 26, 5-[1-(4-Chloro-2-trifluoromethyl-benzyl)-1H-indazol-5-ylmethylene]-2-[methyl-(2-morpholin-4-yl-ethyl)-amino]-thiazol-4-one], the EC50 is 21 nM.
